Test results published in patent publication US20040116418A1, “Compounds and methods for inhibition of HIV and related viruses” (Medivir AB, priority 1994, published 2004).
Values joined by “and” are separate entries in the source; they are usually repeats but may differ in a detail not shown here. Equal entries are not always repeated. Where two headings read alike, the source gives them in different places.

How the values were obtained:
recombinant HIV-RT = recombinant HIV-RT (Human immunodeficiency virus type 1 group M subtype B, UniProt P04585); experiment: Test I (HIVRT (rAdt)): direct inhibitory activity on HIV-RT; assay type: biochemical
Description: 100 mM Tris-HCl pH 7.6, 100 mM KCl, 4 mM MgCl2, 4 mM DTT, 275 mg/ml BSA, 0.5 mg (rA)n(dT)12-18 and 0.3 mM ^3H-=dTTP (specific activity 18.000 cpm/mol). After 60 minutess of incubation 40 ml in duplicate were spotted on paper discs and washed in 5% TCA. After rinsing the paper discs in ethanol they were dried and counted in scintillation fluid.

HIV virus = experiment: Test A (XTT): reduction of virus-caused cytotoxicity in MT4 cells; assay type: cell-based; conditions: for inhibition at 0.01 µg/mL: 0.01 μg/ml; for % inhibition: Test A
Description: Tests A, B, C, and D (XTT)
MT4 cells in a medium of RPMI 1640, 5% FCS, penicillin/streptomycin are adjusted to 2×10^5 cells/ml and seeded into microplates (96 wells/plate) […] cell suspension/well giving 2×10^4 cells/well. The compound to be tested is made into a 10 mg/ml mixture in DMSO and stored at −20° C. […] Further dilutions to […] are made in medium containing microplates. Fifty ml of the 400, 40, and 4 mg/ml are transferred to the cell-containing microplates with a multi-channel pipette (final concentration: 100, 10, and 1 mg/ml). Finally, […] of virus suspension is added to each well (with a repetitive “Eppendorf” multipipett). […] The plate is put into a plastic bag and incubated for six days in CO2 atmosphere.
To each well in the plate is added 50 ml of XTT ((2,3-bis[2-methoxy-4-nitro-5-sulfophenyl]-5-[(phenylamin o)carbonyl]-2H-tetrazolium hydroxide), (1 mg/ml 0.01-0.02 mM N-metyl-phenazonium methosulfate). After six hours of incubation in C02 atmosphere the plates are covered with adhesive plate sealers and gently mixed on a vortex. Optical densities are determined at a wavelength of 450 nm and a reference wavelength of 650 nm. The percent reduction of cytotoxocity caused by the virus infection is calculated as follows: [formula]

[1] = Human immunodeficiency virus 1, MT4, Test A
[2] = Human immunodeficiency virus 1, MT4, Test A, 100 μg/ml, read-out: % inhibition
[3] = headed 0.1 μg/ml (after 0.001 μg/ml)
[4] = Human immunodeficiency virus 1, MT4

In the case of `CCOc1ccc(F)c(C2C[C@@H]2NC(=O)Nc2ccc(Cl)cn2)c1Cl` (some centres unmarked), the “% inhibition” value (recombinant HIV-RT; 0.001 μg/ml) is reported as 30%, the inhibition at 0.001 µg/mL (recombinant HIV-RT; 0.001 μg/ml) is reported as 46% and the “% inhibition” value (recombinant HIV-RT; 0.01 μg/ml) is reported as 80%. For the same molecule, the inhibition at 0.01 µg/mL (recombinant HIV-RT; 0.01 μg/ml) was 82%, the inhibition at 0.1 µg/mL (recombinant HIV-RT; 0.1 μg/ml) was 96% and the “% inhibition” value (recombinant HIV-RT; 1 μg/ml) was 97%. For the same molecule, the inhibition at 1 µg/mL (recombinant HIV-RT; 1 μg/ml) was 99%, the IC50 (recombinant HIV-RT; read-out: IC50 (converted)) was 2.86 nM and 5.21 nM and the inhibition at 0.01 µg/mL (HIV virus; [1]) was 100%. The inhibition at 0.1 µg/mL (HIV virus; Human immunodeficiency virus 1, MT4, Test A, 0.1 μg/ml, read-out: % inhibition) was 100%, the inhibition at 1 µg/mL (HIV virus; Human immunodeficiency virus 1, MT4, Test A, 1 μg/ml) was 87% and the inhibition at 10 µg/mL (HIV virus; Human immunodeficiency virus 1, MT4, Test A, 10 μg/ml, read-out: % inhibition) was 88%. For the same molecule, the inhibition at 100 µg/mL (HIV virus; [2]) was 24% and the “% inhibition” value (HIV virus; 100 μg/ml) was 30%.
`O=C(Nc1ccc(Cl)cn1)N[C@@H]1C[C@@H]1c1cccc([N+](=O)[O-])c1` (racemic) [Example 21, (+,−)-N-(cis-2-(3-Nitrophenyl)-cyclopropyl)-N′-(5-chloropyrid-2-yl)-urea] showed an IC50 (recombinant HIV-RT; read-out: IC50 (converted)) of 150 nM.
In the case of `O=C(Nc1ccc(Br)cn1)N[C@@H]1C[C@H]1c1c(F)cccc1F` (relative stereo) [Example 27, (1R,2S)-N-(cis-2-(2,6-Difluorophenyl)-cyclopropyl)-N′-(5-bromopyrid-2-yl)-urea], the IC50 (recombinant HIV-RT) is reported as 0.5 ng/mL and 0.6 ng/mL.
With `CC(=O)c1cccc([C@H]2C[C@H]2NC(=O)Nc2ccc(Cl)cn2)c1` (racemic) [Example 23, (+,−)-N-(cis-2-(3-Acetylphenyl)-cyclopropyl)-N′-(5-chloropyrid-2-yl)-urea] the IC50 (recombinant HIV-RT; read-out: IC50 (converted)) was 15.2 nM and 42.5 nM.
For `O=C(Nc1ccc(Cl)cn1)N[C@H]1CC1c1c(F)cccc1F` (some centres unmarked), the “% inhibition” value (recombinant HIV-RT; 0.001 μg/ml) was 62%, the inhibition at 0.001 µg/mL (recombinant HIV-RT; 0.001 μg/ml) was 55% and the “% inhibition” value (recombinant HIV-RT; 0.01 μg/ml) was 93%. For the same molecule, the inhibition at 0.01 µg/mL (recombinant HIV-RT; 0.01 μg/ml) was 89%, the “% inhibition” value (recombinant HIV-RT; 0.1 μg/ml) was 97% and the inhibition at 0.1 µg/mL (recombinant HIV-RT; 0.1 μg/ml) was 98%. For the same molecule, the inhibition at 1 µg/mL (recombinant HIV-RT; 1 μg/ml) was 100%, the “% inhibition” value (recombinant HIV-RT; [3]) was 6% and 16% and the inhibition at 0.1 µg/mL (HIV virus; [4]) was 100%. The inhibition at 10 µg/mL (HIV virus; [4]) was 100%, the inhibition at 100 µg/mL (HIV virus; [4]) was 100% and the inhibition at 0.001 µg/mL (HIV virus; Human immunodeficiency virus 1, MT4, Test A, 0.001 μg/ml) was 7%. The inhibition at 0.01 µg/mL (HIV virus; [1]) was 80%, the inhibition at 100 µg/mL (HIV virus; [2]) was 3% and the “% inhibition” value (HIV virus; 0.001 μg/ml) was 8%. The “% inhibition” value (HIV virus; 1 μg/ml) was 90%.
In the case of `CC(NC(=O)Nc1ccc(Br)cn1)c1ncccc1F` (centres unmarked) [Example 10, N-(3-Fluoropyrid-2-yl)eth-2yl-N′-(5-bromopyrid-2-yl)-urea], the melting point is reported as 151 to 154 °C.
With `COCOc1c(C(C)=O)ccc(F)c1[C@H]1C[C@H]1NC(=O)Nc1ccc(Cl)cn1` (relative stereo) [Example 56, (+,−)-N-(cis-2-(5-Acetyl-2-fluoro-6-methoxymethoxy-phenyl)cyclopropyl)-N′-(5-chloropyrid-2-yl)-urea] the IC50 (recombinant HIV-RT) was 2.2 ng/mL.
With `CC(=O)c1ccc(F)c(CCNC(=O)Nc2ccc(Cl)cn2)c1O` [Example 58] the IC50 (recombinant HIV-RT) was 38 ng/mL.
For `CCOc1ccc(F)c(CCNC(=O)Nc2ccc(Br)cn2)c1Cl`, the “% inhibition” value (recombinant HIV-RT; [3]) was 13% and 18%.
`N#Cc1ccc(NC(=O)N[C@@H]2C[C@@H]2c2c(F)cccc2Cl)nc1` (relative stereo) [Example 33, N-(cis-2-(2-chloro-6-fluorophenyl)-cyclopropyl)-N′-(5-cyanopyrid-2-yl)-urea] showed a melting point of 189 °C.
